Reference: PubChem BioAssay (NCI)
Where “and” joins values, the source holds several entries; their conditions need not be identical. Equal entries are not always repeated.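 Compound exposure: 48 hours, 5 concentrations, 96-well plates. Abbreviation: GI50, concentration required for 50% inhibition of growth. TGI denotes the concentration required for complete inhibition of growth.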

Assays:
Experiment in all cases: NCI tumour cell line growth inhibition, 48 h
BT-549 breast = test system: BT-549 breast
COLO 205 colon = test system: COLO 205 colon
EKVX NSCLC = test system: EKVX NSCLC
HCT-116 colon = test system: HCT-116 colon
HCT-15 colon = test system: HCT-15 colon
NCI/ADR-RES ovarian = test system: NCI/ADR-RES ovarian
SF-268 CNS = test system: SF-268 CNS
SN12C renal = test system: SN12C renal
SNB-75 CNS = test system: SNB-75 CNS
MCF7 breast = test system: MCF7 breast

SMILES | TGI (BT-549 breast) | TGI (COLO 205 colon) | TGI (EKVX NSCLC) [µM] | TGI (HCT-116 colon) [µM] | TGI (HCT-15 colon) | TGI (NCI/ADR-RES ovarian) [µM] | TGI (SF-268 CNS) | TGI (SN12C renal) | TGI (SNB-75 CNS) [µM] | TGI (MCF7 breast) [µM] | GI50 (BT-549 breast) [µM] | GI50 (COLO 205 colon) [µM] | GI50 (EKVX NSCLC) | GI50 (HCT-15 colon) [µM] | GI50 (MCF7 breast) [µM] | GI50 (NCI/ADR-RES ovarian) [µM] | GI50 (SF-268 CNS) [µM] | GI50 (SN12C renal) [µM] | GI50 (SNB-75 CNS) [µM]
O=S(=O)(O)c1ccc2c(N=Nc3ccccc3Cl)c(O)ccc2c1 | > 100 µM | > 100 µM | > 100 | > 100 | > 100 µM | > 100 | > 100 µM | > 100 µM | > 100 | – | – | – | – | – | – | – | – | – | –
COc1ccc(N=C2C(=Nc3ccc(OC)cc3)N(S(=O)(=O)c3ccccc3)C(=S)N2c2ccc(OC)cc2)cc1 | > 100 µM | > 100 µM | > 100 | > 100 | > 100 µM | > 100 | > 100 µM | > 100 µM | 38.8 | > 100 | – | – | – | – | – | – | – | – | –
CC1C(c2ccc3c(c2)OCO3)c2cc3c(cc2OC1N1CCCCC1)OCO3 (stereo not given) | – | > 100 µM | > 100 | > 100 | > 100 µM | > 100 | > 100 µM | > 100 µM | – | > 100 | – | – | – | – | – | – | – | – | –
Cc1ccc(O)c(-c2csc(NCN3CCN(CNc4nc(-c5cc(C)ccc5O)cs4)CC3)n2)c1 | > 100 µM | > 100 µM | > 100 | > 100 | > 100 µM | > 100 | > 100 µM | > 100 µM | > 100 | > 100 | – | – | – | – | – | – | – | – | –
O=C(NCCCCNCCCNC(=O)c1cc(-c2ccccc2)nc2ccccc12)c1cc(-c2ccccc2)nc2ccccc12 | 37.5 µM | – | 3.52 | 3.2 | 3.46 µM | 5.09 | – | 3.38 µM | – | 3.07 | – | – | – | – | – | – | – | – | –
CCOC(=O)COc1c(OC)cc(C2C3=C(COC3=O)Oc3cc4c(cc32)OCO4)cc1OC (stereo not given) | 98.1 µM | 4.88 µM | > 100 | > 100 | > 100 µM | > 37.3 | > 100 µM | > 73 µM | > 100 | > 100 | – | – | – | – | – | – | – | – | –
NC12CC3CC4C1CC1CC2C(C3)C4(N)C1 | > 100 µM | > 100 µM | > 100 | > 100 | > 100 µM | > 100 | > 100 µM | > 100 µM | – | > 100 | – | – | – | – | – | – | – | – | –
COC(=O)c1ccc(CCc2cc(O)c(Br)cc2O)cc1 | 15.8 µM | 27.3 µM | 31.3 | 14.3 | 26.1 µM | 43.2 | 34.1 µM | 28.3 µM | > 59.6 | 28.1 | – | – | – | – | – | – | – | – | –
O=C1C=C(N2CC2)C(=O)C=C1N1CC1 | 0.159 µM and 1.34 µM | 0.126 µM and 0.267 µM | 4.84 | – | 0.231 µM and 1.21 µM | – | 0.299 µM and 1.5 µM | 0.278 µM and 1.14 µM | – | 0.0712 | 0.0207 | 0.034 | 0.404 µM and 2.65 µM | 0.0207 | 0.00205 | 0.0241 | 0.0109 | 0.0307 | 0.00736
CC(C)(C)OC(=O)NC(Cc1ccc(OCc2ccccc2)cn1)C(=O)N1CCSCC1 (stereo not given) | 71.7 µM | 33.1 µM | > 100 | > 100 | > 100 µM | 94.5 | > 100 µM | > 100 µM | 76.5 | > 100 | – | – | – | – | – | – | – | – | –
COc1cc(/C=C/C(=O)N[C@@H]2C(=O)N3[C@@H]2SC(C)(C)[C@@H]3C(=O)O)cc(OC)c1OC | > 100 µM | > 100 µM | > 100 | > 100 | > 100 µM | > 100 | > 100 µM | > 100 µM | > 100 | > 100 | – | – | – | – | – | – | – | – | –
Cc1ccc(S(=O)(=O)/N=C(\[O-])C2=C(c3ccccc3)NN(C)c3nc4cccc[n+]4nc32)cc1 | > 100 µM | 53.3 µM | > 100 | > 100 | > 100 µM | > 100 | > 100 µM | > 100 µM | > 100 | > 100 | – | – | – | – | – | – | – | – | –
CCOC(=O)/C=C(\N=P(c1ccccc1)(c1ccccc1)c1ccccc1)C(F)(F)C(F)(F)C(F)(F)C(F)(F)C(F)(F)F | > 100 µM | > 100 µM | – | > 100 | > 100 µM | > 100 | > 100 µM | > 100 µM | > 100 | > 100 | – | – | – | – | – | – | – | – | –
COc1cccc2c1C(=O)c1c(O)c3c(c(O)c1C2=O)C[C@@](O)(/C(C)=N/NC(=O)c1ccccc1)C[C@@H]3OC1CC(N)C(O)C(C)O1 (stereo not given in full) | 1.45 µM | 3.2 µM | 3.02 | 10.2 | 19.9 µM | 76 | 3.35 µM | 5.7 µM | 1.97 | 2.93 | – | – | – | – | – | – | – | – | –
CSc1nncc2[nH]cnc12 | > 100 µM | > 100 µM | > 100 | > 100 | > 100 µM | > 100 | > 100 µM | > 100 µM | > 100 | > 100 | – | – | – | – | – | – | – | – | –
COC(OC)(c1ccccc1)C(I)I | 23.1 µM | 24.2 µM | 16.9 | 18.1 | 18.5 µM | > 59.7 | 46.1 µM | 50.4 µM | 26.3 | 47.4 | – | – | – | – | – | – | – | – | –
N#C[C@@]12CCCC(=O)[C@@H]1[C@H]1CCC[C@H]12 | 39.2 µM | 45.7 µM | 28.6 | 30.8 | 38.2 µM | 59.4 | – | 35.1 µM | 36 | 49.8 | – | – | – | – | – | – | – | – | –
O=c1c(-c2ccccc2Cl)coc2cc(F)ccc12 | 48.5 µM | > 100 µM | > 100 | > 100 | > 100 µM | 46.7 | > 100 µM | > 100 µM | 54.5 | > 100 | – | – | – | – | – | – | – | – | –
CCc1n[nH]c(=O)n1NC(=O)c1ccccc1C(=O)O | > 100 µM | > 100 µM | > 100 | > 100 | > 100 µM | > 100 | > 100 µM | > 100 µM | > 100 | > 100 | – | – | – | – | – | – | – | – | –
Cc1cc(O)c(/C=N/c2nc(-c3cccc([N+](=O)[O-])c3)cs2)c(=O)o1 | 73.5 µM | > 100 µM | > 100 | > 100 | > 100 µM | > 100 | – | > 100 µM | > 100 | > 100 | – | – | – | – | – | – | – | – | –
NC(Cc1c[nH]c2ccccc12)C(=O)O (stereo not given) | – | > 300 µM | > 300 | > 300 | > 191 µM | > 300 | > 300 µM | > 13.9 µM | > 300 | > 300 | – | – | – | – | – | – | – | – | –
